Experimental data as given in PMC4785745, “Genome-wide analysis identifies gain and loss/change of function within the small multigenic insecticidal Albumin 1 family of Medicago truncatula” (BMC Plant Biology, 2016).
Bridge positions count the residues as written; N and C are the ends. Ends that are not written are not given here. Peptide text beside a SMILES is read from it.

How the values were obtained:
Sf9 cells = type: cell-based, Spodoptera frugiperda; conditions: for LC50: cultured Sf9 cells, 15 000 cells/well, 24 h exposure, 27 °C, CellTiter-Blue, according to Rahioui et al. [32], '-' = no toxicity in the range assayed
Procedure: Sf9 cells lines were grown at 27 °C in Lonza’s culture medium, supplemented with 5 % fetal bovine serum (FBS) and 0.1 % gentamicin. Sf9 cells were seeded, in 96-well plates, 24 h prior to the experiments (15 000 cells/well) and were exposed to increasing concentrations of synthetic peptide. After this 24 h period, cell viability was determined using the CellTiter-Blue Viability Assay (Promega), according to the manufacturer’s instructions. After addition of the dye, the cells were incubated at 27 °C for 4 h. The absorbance, at 570 and 600 nm, was then measured using a microplate reader (MR 7000, Dynatech Laboratories Inc., USA).

Sitophilus = type: in vivo; conditions: standard Sitophilus mortality assay [17]; data not shown
PA1b binding site = assay: Ligand binding to the PA1b-binding site using 125I-PA1b; conditions: for binding to the PA1b-binding site (in words): 125I-PA1b ligand binding; for Ki: affinity to the PA1b binding site, ligand binding using 125I-PA1b, according to [12], '-' = no binding in the range assayed
Procedure: The affinity of synthetic peptides for the PA1b-binding site was determined by ligand binding using ^125I-toxin [12].

[1] = system: Sf9 cell ramp membrane current; assay: Whole-cell patch-clamp: blockage of Sf9 cell ramp membrane current; type: cell-based, Spodoptera frugiperda; conditions: Sf9 cells; for EC50: whole-cell patch clamp, voltage ramps 1.5 s from −100 to 90 mV, measured at +50 mV, Hill fit with 100 % blockage as fixed maximum, mean ± S.E., n = 9 (AG41), n = 8 (PA1b), SEM, read-out: EC50, inhibition of ramp membrane current
Procedure: We further investigated the AG41’s biological activity by performing an electrophysiological experiment on cultured Sf9 cells to check whether its cell-membrane ion transport alteration differed from that of PA1b, the model pea peptide. […] At 35 nM, AG41 decreased by approximately 35 % the ramp current amplitude measured at +50 mV (from 68 pA to 44 pA), while a similar concentration of 37.5 nM PA1b had no effect (trace from AG41 even differed from control at 3.5 nM).
Current recordings were made at room temperature, under voltage clamp using the whole-cell configuration of the patch-clamp technique. Command voltage and data acquisition were performed with pClamp software (Axon Instruments, Foster city, CA, USA). The holding potential was −80 mV. Membrane currents were evoked, every 10 s, by voltage ramps of 1.5 s in duration applied from −100 to 90 mV, filtered at 300 Hz and sampled at 1 kHz with an analogue-to-digital converter (Labmaster TM 40, Scientific Solutions Inc., Solon OH, USA). The external solution contained (in mM): 135 NaCl, 4 KCl, 2 MgCl2, 10 CaCl2 and 10 Mes, adjusted to pH 6.4 with NaOH. The internal solution contained (in mM): 140 K-aspartate, 1 MgCl2, 3 K2-ATP, 5 EGTA and 5 Hepes, adjusted to pH 7.2 with KOH. Salts were purchased from Sigma-Aldrich and peptides were prepared as 60 % (v/v) ethanol stock solution as previously described.
Biological results are expressed as the mean ± S.E.M., n indicating the number of Sf9 cells studied (electrophysiology). Statistical comparisons were made using a Mann–Whitney U or Wilcoxon tests at the 95 % confidence level.

For `CC[C@H](C)[C@@H]1NC(=O)CNC(=O)[C@H](CO)NC(=O)[C@@H](NC(=O)[C@H](CC(=O)O)NC(=O)[C@H](C)N)CSSC[C@@H]2NC(=O)[C@H](CC(=O)O)NC(=O)[C@H](CO)NC(=O)[C@H](CO)NC(=O)[C@H](CCCNC(=N)N)NC(=O)[C@@H]3CSSC[C@@H](C(=O)N[C@H](C(=O)N[C@@H](CC(N)=O)C(=O)N4CCC[C@H]4C(=O)N[C@H](C(=O)N[C@@H](CO)C(=O)O)[C@@H](C)CC)[C@@H](C)CC)NC(=O)[C@H](Cc4ccccc4)NC(=O)CNC(=O)CNC(=O)[C@H]([C@@H](C)CC)NC(=O)[C@H](CC(C)C)NC(=O)[C@H](C)NC(=O)[C@H]([C@@H](C)CC)NC(=O)[C@@H]4CCCN4C(=O)[C@H]([C@@H](C)CC)NC(=O)[C@H](CSSC[C@H](NC1=O)C(=O)N[C@@H](CO)C(=O)N1CCC[C@H]1C(=O)N[C@@H](Cc1ccccc1)C(=O)N[C@@H](CCC(=O)O)C(=O)N[C@@H](CCSC)C(=O)N1CCC[C@H]1C(=O)N1CCC[C@H]1C(=O)N3)NC(=O)[C@H](CCCNC(=N)N)NC2=O` [AS37] (H-ADCSGICSPFEMPPCRSSDCRCIPIALIGGFCINPIS-OH; disulfide 3-20, 7-22, 15-32 (inferred); N-terminus and C-terminus assumed), the LC50 (Sf9 cells) was 107 ± 3.2 nM, the “toxicity in Sitophilus mortality assay (in words)” value (shortened to “toxicity … (in words)”) (Sitophilus) was “toxic” and the “binding to the PA1b-binding site (in words)” value (shortened to “binding”) (PA1b binding site) was “revealed binding properties”. The Ki (PA1b binding site) was 15 ± 2 nM.

`CC[C@H](C)[C@@H]1NC(=O)[C@H](Cc2ccccc2)NC(=O)[C@@H]2CSSC[C@@H]3NC(=O)[C@H](C)NC(=O)[C@H](CCC(=O)O)NC(=O)CNC(=O)[C@@H](NC(=O)[C@H](CCCCN)NC(=O)[C@H](C)N)CSSC[C@H](NC(=O)CNC(=O)[C@H](CC(=O)O)NC(=O)CNC(=O)[C@H](C)NC(=O)[C@H](CC(N)=O)NC(=O)[C@H](CSSC[C@@H](C(=O)N[C@@H](C)C(=O)N[C@@H](CCC(N)=O)C(=O)N[C@@H](CC(C)C)C(=O)N[C@@H](CO)C(=O)N[C@H](C(=O)O)[C@@H](C)O)NC(=O)[C@H](Cc4ccccc4)NC(=O)CNC(=O)[C@@H]4CCCN4C(=O)[C@H](CC(C)C)NC(=O)[C@H]([C@@H](C)O)NC(=O)[C@H](CC(C)C)NC(=O)[C@H](Cc4ccc(O)cc4)NC(=O)[C@H](C)NC(=O)[C@H](CC(=O)O)NC(=O)[C@H]([C@@H](C)O)NC1=O)NC(=O)[C@H](Cc1ccccc1)NC(=O)[C@H](CC(N)=O)NC(=O)[C@H](Cc1ccccc1)NC(=O)[C@H](CCC(N)=O)NC(=O)[C@H]([C@@H](C)O)NC(=O)[C@H](CC(=O)O)NC3=O)C(=O)N[C@@H](CCCNC(=N)N)C(=O)N2` [AS40] (H-AKCGEACDTQFNFCNAGDGCRCFITDAYLTLPGFCAQLST-OH; disulfide 3-20, 7-22, 14-35 (inferred); N-terminus and C-terminus assumed) was tested, and the LC50 (Sf9 cells) was 47 ± 2.2 nM, the “binding” value (PA1b binding site) was “revealed binding properties” and the Ki (PA1b binding site) was 10.3 ± 2 nM.

In the case of `CC[C@H](C)[C@@H]1NC(=O)[C@H](C(C)C)NC(=O)[C@H](CC(C)C)NC(=O)CNC(=O)[C@H](C(C)C)NC(=O)[C@@H]2CCCN2C(=O)[C@H]([C@@H](C)CC)NC(=O)[C@@H]2CSSC[C@@H]3NC(=O)[C@H](C(C)C)NC(=O)CNC(=O)[C@H](CC(N)=O)NC(=O)[C@@H](NC(=O)[C@H](CO)NC(=O)[C@H](C)N)CSSC[C@H](NC(=O)[C@H](C)NC(=O)[C@H](CO)NC(=O)[C@H]([C@@H](C)O)NC(=O)CNC(=O)[C@H](CSSC[C@@H](C(=O)N[C@@H](CCCNC(=N)N)C(=O)N[C@@H](CC(N)=O)C(=O)N4CCC[C@H]4C(=O)N[C@@H](CO)C(=O)NCC(=O)O)NC(=O)[C@H](Cc4ccc(O)cc4)NC(=O)CNC1=O)NC(=O)[C@@H]1CCCN1C(=O)[C@@H]1CCCN1C(=O)[C@H](CCSC)NC(=O)[C@H](CCC(=O)O)NC(=O)[C@H](Cc1ccccc1)NC(=O)[C@@H]1CCCN1C(=O)[C@H](CO)NC3=O)C(=O)N[C@@H](CCCNC(=N)N)C(=O)N2` [PA1b, reference compound] (H-ASCNGVCSPFEMPPCGTSACRCIPVGLVIGYCRNPSG-OH; disulfide 3-20, 7-22, 15-32; N-terminus and C-terminus assumed), the LC50 (Sf9 cells) is reported as 79.8 ± 3.6 nM, the Ki (PA1b binding site) is reported as 17 ± 1.1 nM and the “effect on ramp membrane current (in words)” value ([1]; 37.5 nM peptide) is reported as “no effect”. It also gave an EC50 [1] of 415 ± 75.6 nM.

“ASCPNVGAVCSPFETKPCGNVKDCRCLPWGLFFGTCINPTG (disulfide 3-24, 10-26, 18-36 (inferred)) [AG41]” was tested, and the “toxicity relative to the original pea albumin 1b” value (Sf9 cells; compared with PA1b, Table 1) was “almost ten times superior”, the LC50 (Sf9 cells) was 5.44 ± 1.7 nM and the “toxicity … (in words)” value (Sitophilus) was “highly toxic”. For the same compound, the “binding” value (PA1b binding site) was “revealed binding properties”, the Ki (PA1b binding site) was 1.3 ± 0.6 nM and the “decrease of ramp current amplitude measured at +50 mV” value ([1]; 35 nM peptide) was “approximately 35%”. The “ramp current amplitude measured at +50 mV” value ([1]; 35 nM peptide (control 68 pA)) was 44 pA and the EC50 [1] was 14.6 ± 0.4 nM.

For “DEC-W-G-PCSVLQTPP-CPLSK CYCIPLFLVVGY---CSHASS (bicyclic or more) [DS37, synthetic folded Medicago truncatula A1b peptide, cluster 1, non-canonical CYC motif]”, the LC50 (Sf9 cells) was “- ((−) scores a negative result (no toxicity nor binding in the toxin range assayed))”, the “toxicity … (in words)” value (Sitophilus) was “not toxic” and the “binding” value (PA1b binding site) was “did not present binding”.

“EFCSSVGSFCSPFNTNPCGYLGNCRCVPYYLYGGTCENPFG (disulfide 3-24, 10-26, 18-36 (inferred)) [EG41]” was tested, and the LC50 (Sf9 cells) was 75 ± 3.1 nM, the “binding” value (PA1b binding site) was “revealed binding properties” and the Ki (PA1b binding site) was 72.8 ± 2.7 nM.

With “GQCARVGMRCSRALPNPCGDIVTCRCVHLHLVGSTCIDYTGDGL (disulfide 3-24, 10-26, 18-36) [GL44]” the LC50 (Sf9 cells) was “- ((−) scores a negative result (no toxicity nor binding in the toxin range assayed))”, the “binding” value (PA1b binding site) was “did not present binding” and the Ki (PA1b binding site) was over 694 nM.
